Square brackets hold non-standard residues; d marks the D form. Peptide text beside a SMILES is read from it. * marks the point of attachment. Dolaproine = CO[C@@H]([C@@H]1CCCN1)[C@@H](C)C(=O)O; Dil = CC[C@H](C)[C@H](NC)[C@@H](CC(=O)O)OC; X1 = C[C@@H](N*)[C@@H](O)c1ccccc1; NMeV = CN[C@H](C(=O)O)C(C)C
How the values were obtained:
Type in all cases: cell-based
Conditions in all cases: 144 hours, SRB dye
[1] = system: gastric cancer cell line NUGC-4; assay: In vitro cytotoxicity (cell proliferation inhibition), NUGC-4
Protocol: (§1) The cell proliferation inhibitory activity of drugs shown in Table 4 and the ADCs was measured. Gastric cancer cell lines NUGC-4, SNU-601, and SNU-602, and a pancreatic cancer cell line PATU-8988s, which are commercially available as cancer cell lines, were used, and normal cell lines HaCaT, Fa2N-4, HK-2, and HS738.st/Int were used. As for test groups treated with each cancer cell line for 144 hours, cells were seeded into a 96-well plate at the rate of 2,500 cells/well to 10,000 cells/well and cultured for 24 hours, and then each cancer cell line was treated with each drug and each ADC at a concentration of 0.256 pM to 100 nM (5-fold serial diltuion), and each normal cell line was treated with each drug and each ADC at a concentration of 2.56 pM to 1,000 nM (5-fold serial dilution). The number of cells survived after 144 hours was quantified using a sulforhodamine B (SRB) dye, and the cell line Hs738.st/Int was quantified using Cell titer glo.

normal cell line HaCaT = assay: In vitro cytotoxicity, normal cell line HaCaT
Protocol: as §1

[2] = system: gastric cancer cell line SNU-620; assay: In vitro cytotoxicity (cell proliferation inhibition), SNU-620
normal cell line HK-2 = assay: In vitro cytotoxicity, normal cell line HK-2
Protocol: as §1

[3] = system: gastric cancer cell line SNU-601; assay: In vitro cytotoxicity (cell proliferation inhibition), SNU-601
Protocol: as §1

[4] = system: pancreatic cancer cell line PATU-8988s; assay: In vitro cytotoxicity (cell proliferation inhibition), PATU-8988s
Protocol: as §1

normal cell line Fa2N-4 = assay: In vitro cytotoxicity, normal cell line Fa2N-4
Protocol: as §1

| Compound | IC50 [1] [nM] | IC50 (normal cell line HaCaT) [nM] | IC50 [2] [nM] | IC50 (normal cell line HK-2) [nM] | IC50 [3] [nM] | IC50 [4] [nM] | IC50 (normal cell line Fa2N-4) [nM] |
| --- | --- | --- | --- | --- | --- | --- | --- |
| CC[C@H](C)[C@@H]([C@@H](CC(=O)N1CCC[C@H]1[C@H](OC)[C@@H](C)C(=O)N[C@H](C)[C@@H](O)c1ccccc1)OC)N(C)C(=O)[C@@H](NC(=O)[C@@H](NC)C(C)C)C(C)C [MMAE, monomethyl auristatin E] (H-[NMeV]V[Dil][Dolaproine]-X1) | 0.29 | 0.14 | 0.71 | 21.9 | 0.51 | 0.145 | 3 |
| C=C1C[C@H]2C=Nc3cc(OCCCCCOc4cc5c(cc4OC)C(=O)N4CC(=C)C[C@H]4C=N5)c(OC)cc3C(=O)N2C1 [SG2057] | 0.03 | – | 0.097 | – | 0.003 | – | – |
